According to PubChem BioAssay (NCI):
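All cell lines were grown in 96-well plates and treated with compound for 48 hours. Abbreviation: GI50, concentration required for 50% inhibition of growth. TGI marks complete inhibition of growth.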

Key:
Assay in all cases: NCI anticancer screen, dose series, 48 h
OVCAR-5 ovarian = tested on: OVCAR-5 ovarian
MALME-3M melanoma = tested on: MALME-3M melanoma
NCI-H460 lung = tested on: NCI-H460 lung
SK-MEL-5 melanoma = tested on: SK-MEL-5 melanoma
HL-60(TB) leukemia = tested on: HL-60(TB) leukemia
NCI-H522 lung = tested on: NCI-H522 lung
SNB-19 CNS = tested on: SNB-19 CNS
A498 renal = tested on: A498 renal
NCI/ADR-RES ovarian = tested on: NCI/ADR-RES ovarian
SR leukemia = tested on: SR leukemia
HCC-2998 colon = tested on: HCC-2998 colon
M14 melanoma = tested on: M14 melanoma
UACC-257 melanoma = tested on: UACC-257 melanoma
TK-10 renal = tested on: TK-10 renal
SN12C renal = tested on: SN12C renal
786-0 renal = tested on: 786-0 renal
SNB-75 CNS = tested on: SNB-75 CNS
COLO 205 colon = tested on: COLO 205 colon
SW-620 colon = tested on: SW-620 colon
RXF 393 renal = tested on: RXF 393 renal
A549 NSCLC = tested on: A549 NSCLC
MDA-MB-231 breast = tested on: MDA-MB-231 breast
OVCAR-8 ovarian = tested on: OVCAR-8 ovarian
HOP-92 NSCLC = tested on: HOP-92 NSCLC
CCRF-CEM leukemia = tested on: CCRF-CEM leukemia
MDA-MB-435 = tested on: MDA-MB-435
T-47D breast = tested on: T-47D breast
SF-539 CNS = tested on: SF-539 CNS
BT-549 breast = tested on: BT-549 breast
OVCAR-4 ovarian = tested on: OVCAR-4 ovarian
SK-MEL-2 melanoma = tested on: SK-MEL-2 melanoma
EKVX NSCLC = tested on: EKVX NSCLC
MCF7 breast = tested on: MCF7 breast
UACC-62 melanoma = tested on: UACC-62 melanoma
LOX IMVI melanoma = tested on: LOX IMVI melanoma
DU-145 prostate = tested on: DU-145 prostate
CAKI-1 renal = tested on: CAKI-1 renal
HS 578T breast = tested on: HS 578T breast
K-562 leukemia = tested on: K-562 leukemia
UO-31 renal = tested on: UO-31 renal
SF-295 CNS = tested on: SF-295 CNS
HCT-15 colon = tested on: HCT-15 colon
HOP-62 NSCLC = tested on: HOP-62 NSCLC
KM12 colon = tested on: KM12 colon
IGROV1 ovarian = tested on: IGROV1 ovarian
SK-MEL-28 melanoma = tested on: SK-MEL-28 melanoma
SF-268 CNS = tested on: SF-268 CNS
HT29 colon = tested on: HT29 colon
PC-3 prostate = tested on: PC-3 prostate
U251 CNS = tested on: U251 CNS
ACHN renal = tested on: ACHN renal
HCT-116 colon = tested on: HCT-116 colon
OVCAR-3 ovarian = tested on: OVCAR-3 ovarian
NCI-H226 lung = tested on: NCI-H226 lung
SK-OV-3 ovarian = tested on: SK-OV-3 ovarian
MOLT-4 leukemia = tested on: MOLT-4 leukemia
RPMI-8226 leukemia = tested on: RPMI-8226 leukemia
NCI-H23 lung = tested on: NCI-H23 lung

`Cc1c(C(N)=O)sc2c1c(=O)n(Cc1ccccc1)c1nnc(S(=O)(=O)CC(=O)Nc3ccc(Cl)cc3)n21` was tested, and the GI50 (OVCAR-5 ovarian) was 10.9 µM, the TGI (OVCAR-5 ovarian) was 52.1 µM and the GI50 (MALME-3M melanoma) was 3.96 µM. For the same compound, the TGI (MALME-3M melanoma) was 17.5 µM, the GI50 (NCI-H460 lung) was 2.87 µM and the TGI (NCI-H460 lung) was 7.64 µM. The GI50 (SK-MEL-5 melanoma) was 6.02 µM, the TGI (SK-MEL-5 melanoma) was 20.7 µM and the GI50 (HL-60(TB) leukemia) was 40.7 µM. It also gave a TGI (HL-60(TB) leukemia) greater than 100 µM, a GI50 (NCI-H522 lung) of 2.53 µM and a TGI (NCI-H522 lung) of 6.73 µM. It also gave a GI50 (SNB-19 CNS) of 7.7 µM, a TGI (SNB-19 CNS) of 23.3 µM and a GI50 (A498 renal) of 1.26 µM. For the same compound, the TGI (A498 renal) was 4.21 µM, the GI50 (NCI/ADR-RES ovarian) was 20.2 µM and the TGI (NCI/ADR-RES ovarian) was 63.4 µM. The GI50 (SR leukemia) was 6.71 µM, the TGI (SR leukemia) was 30.3 µM and the GI50 (HCC-2998 colon) was 18.7 µM. It also gave a TGI (HCC-2998 colon) greater than 100 µM, a GI50 (M14 melanoma) of 5.3 µM and a TGI (M14 melanoma) of 21.2 µM. For the same compound, the GI50 (UACC-257 melanoma) was 2.68 µM, the TGI (UACC-257 melanoma) was 7.88 µM and the GI50 (TK-10 renal) was 4.38 µM. It also gave a TGI (TK-10 renal) of 19.2 µM, a GI50 (SN12C renal) of 4.67 µM and a TGI (SN12C renal) of 28.2 µM. It also gave a GI50 (786-0 renal) of 3.07 µM, a TGI (786-0 renal) of 12.2 µM and a GI50 (SNB-75 CNS) of 2.15 µM. For the same compound, the TGI (SNB-75 CNS) was 5.48 µM, the GI50 (COLO 205 colon) was 10.7 µM and the TGI (COLO 205 colon) was 27.5 µM. For the same compound, the GI50 (SW-620 colon) was 4.87 µM, the TGI (SW-620 colon) was 20.4 µM and the GI50 (RXF 393 renal) was 2.41 µM. For the same compound, the TGI (RXF 393 renal) was 7.13 µM, the GI50 (A549 NSCLC) was 2.3 µM and the TGI (A549 NSCLC) was 6.04 µM. It also gave a GI50 (MDA-MB-231 breast) of 4.24 µM, a TGI (MDA-MB-231 breast) of 18.5 µM and a GI50 (OVCAR-8 ovarian) of 3.69 µM. The TGI (OVCAR-8 ovarian) was 15.6 µM, the GI50 (HOP-92 NSCLC) was 2.26 µM and the TGI (HOP-92 NSCLC) was 6.63 µM. It also gave a GI50 (CCRF-CEM leukemia) of 10.9 µM, a TGI (CCRF-CEM leukemia) of 43.1 µM and a GI50 (MDA-MB-435) of 3.61 µM. For the same compound, the TGI (MDA-MB-435) was 17 µM, the GI50 (T-47D breast) was 3.89 µM and the TGI (T-47D breast) was 14.3 µM. For the same compound, the GI50 (SF-539 CNS) was 2.75 µM, the TGI (SF-539 CNS) was 6.5 µM and the GI50 (BT-549 breast) was 2.92 µM. For the same compound, the TGI (BT-549 breast) was 14.9 µM, the GI50 (OVCAR-4 ovarian) was 1.93 µM and the TGI (OVCAR-4 ovarian) was 5.47 µM. The GI50 (SK-MEL-2 melanoma) was 2.83 µM, the TGI (SK-MEL-2 melanoma) was 7.18 µM and the GI50 (EKVX NSCLC) was 5.89 µM. The TGI (EKVX NSCLC) was 27.4 µM, the GI50 (MCF7 breast) was 4.76 µM and the TGI (MCF7 breast) was 70.2 µM. It also gave a GI50 (UACC-62 melanoma) of 4.21 µM, a TGI (UACC-62 melanoma) of 18.7 µM and a GI50 (LOX IMVI melanoma) of 6.15 µM. The TGI (LOX IMVI melanoma) was 20.6 µM, the GI50 (DU-145 prostate) was 7.29 µM and the TGI (DU-145 prostate) was 36.7 µM. The GI50 (CAKI-1 renal) was 2.94 µM, the TGI (CAKI-1 renal) was 11.8 µM and the GI50 (HS 578T breast) was 2.67 µM. For the same compound, the TGI (HS 578T breast) was greater than 100 µM, the GI50 (K-562 leukemia) was 15 µM and the TGI (K-562 leukemia) was 55.2 µM. The GI50 (UO-31 renal) was 2.86 µM, the TGI (UO-31 renal) was 11.3 µM and the GI50 (SF-295 CNS) was 3.28 µM. The TGI (SF-295 CNS) was 26.2 µM, the GI50 (HCT-15 colon) was 38.6 µM and the TGI (HCT-15 colon) was greater than 100 µM. For the same compound, the GI50 (HOP-62 NSCLC) was 2.51 µM, the TGI (HOP-62 NSCLC) was 5.99 µM and the GI50 (KM12 colon) was 4.54 µM. The TGI (KM12 colon) was 16.2 µM, the GI50 (IGROV1 ovarian) was 8.57 µM and the TGI (IGROV1 ovarian) was 24.3 µM. For the same compound, the GI50 (SK-MEL-28 melanoma) was 2.98 µM, the TGI (SK-MEL-28 melanoma) was 8.45 µM and the GI50 (SF-268 CNS) was 6.8 µM. For the same compound, the TGI (SF-268 CNS) was 27.4 µM, the GI50 (HT29 colon) was 6.82 µM and the TGI (HT29 colon) was 26 µM. For the same compound, the GI50 (PC-3 prostate) was 2.58 µM, the TGI (PC-3 prostate) was 9.3 µM and the GI50 (U251 CNS) was 1.99 µM. For the same compound, the TGI (U251 CNS) was 4.25 µM, the GI50 (ACHN renal) was 4.63 µM and the TGI (ACHN renal) was 20.6 µM. It also gave a GI50 (HCT-116 colon) of 2.1 µM, a TGI (HCT-116 colon) of 5.22 µM and a GI50 (OVCAR-3 ovarian) of 5.27 µM. It also gave a TGI (OVCAR-3 ovarian) of 18 µM, a GI50 (NCI-H226 lung) of 4.83 µM and a TGI (NCI-H226 lung) of 19.8 µM. The GI50 (SK-OV-3 ovarian) was 3.24 µM, the TGI (SK-OV-3 ovarian) was 7.81 µM and the GI50 (MOLT-4 leukemia) was 15.6 µM. The TGI (MOLT-4 leukemia) was 46.8 µM, the GI50 (RPMI-8226 leukemia) was 39.1 µM and the TGI (RPMI-8226 leukemia) was greater than 100 µM. It also gave a GI50 (NCI-H23 lung) of 3.13 µM and a TGI (NCI-H23 lung) of 9.71 µM.
